A word on the IC50: it is the point on the concentration scale where inhibition reaches its midpoint.

This test has as its target BRD4 (Homo sapiens, UniProt O60885). The test can be described thus: Time Resolved Fluorescence Resonance Energy Transfer (TR-FRET) binding assay, BRD4. The following applies: one of the FRET assays described; read-out: FRET BRD4 IC50. (In general: In TR-FRET formats the signal depends on donor and acceptor labels being close together.)
In the case of `Cc1nnn(C)c1-c1cnc2c3ccc(C(C)(C)O)cc3n(C(c3ccccc3Cl)C3CCOCC3)c2c1` (single isomer, unassigned) [Example 402], the IC50 was less than 5 nM.

As to `Cc1nnn(C)c1-c1cnc2c3ccc(C(C)(C)O)cc3n(C(c3ccccc3Cl)C3CCOCC3)c2c1` (single isomer, unassigned) [Example 403], the IC50 was less than 5 nM.

Consider `Cc1nnn(C)c1-c1cnc2c3ccc(C(C)(O)C4CC4)cc3n([C@H](c3ccccc3)C3CCOCC3)c2c1` (single isomer, unassigned) [Example 422], for which the IC50 is less than 5 nM.

As to `Cc1nnn(C)c1-c1cnc2c3ccc(C(C)(O)C4CC4)cc3n([C@H](c3ccccc3)C3CCOCC3)c2c1` (single isomer, unassigned) [Example 423], the IC50 was less than 5 nM.

With `Cc1nnn(C)c1-c1cnc2c3ccc(C(C)(O)C4CC4)c(F)c3n([C@H](c3ccccc3F)C3CCOCC3)c2c1` (single isomer, unassigned) [Example 435], the IC50 is less than 5 nM.

For `[2H]C([2H])([2H])c1nnn(C)c1-c1cnc2c3ccc(C(C)(O)C4CC4)c(F)c3n([C@H](c3ccccc3F)C3CCOCC3)c2c1` (single isomer, unassigned) [Example 438], the IC50 was less than 5 nM.

Take `Cc1nnn(C)c1-c1cnc2c3ccc(C(C)(O)C(F)(F)F)c(F)c3n([C@H](c3ccccc3)C3CCOCC3)c2c1` (single isomer, unassigned) [Example 441]: the IC50 is less than 5 nM.

In the case of `Cc1nnn(C)c1-c1cnc2c3cc(F)c(C(C)(O)C4CC4)cc3n([C@H](c3ccccc3)C3CCOCC3)c2c1` (single isomer, unassigned) [Example 443], the IC50 was less than 5 nM.

Take `Cc1nnn(C)c1-c1cnc2c3cc(F)c(C(C)(O)C4CC4)cc3n([C@H](c3ccccc3)C3CCOCC3)c2c1` (single isomer, unassigned) [Example 444]: the IC50 was less than 5 nM.

For `Cc1nnn(C)c1-c1cnc2c3cc(F)c(C(C)(O)C4CC4)cc3n([C@H](c3ccccc3F)C3CCOCC3)c2c1` (single isomer, unassigned) [Example 447], the IC50 is less than 5 nM.

As for `Cc1nnn(C)c1-c1cnc2c3cc(F)c(C(C)(O)C4CC4)cc3n([C@H](c3ccccc3F)C3CCOCC3)c2c1` (single isomer, unassigned) [Example 448], the IC50 was less than 5 nM.

On to `Cc1nnn(C)c1-c1cnc2c3cc(F)c(C(C)(O)C4CC4)c(F)c3n([C@H](c3ccccc3)C3CCOCC3)c2c1` (single isomer, unassigned) [Example 449], for which the IC50 was less than 5 nM.

On to `Cc1nnn(C)c1-c1cnc2c3cc(F)c(C(C)(O)C4CC4)c(F)c3n([C@H](c3ccccc3)C3CCOCC3)c2c1` (single isomer, unassigned) [Example 450], for which the IC50 was less than 5 nM.

With `[2H]C([2H])([2H])c1nnn(C)c1-c1cnc2c3ccc(C(C)(C)O)c(F)c3n(C(c3ncccc3F)C3CCC(F)(F)CC3)c2c1` (single isomer, unassigned) [Example 456], the IC50 was less than 5 nM.

As to `[2H]C([2H])([2H])c1nnn(C)c1-c1cnc2c3ccc(C(C)(C)O)cc3n(C(c3cc(Cl)ccn3)C3CCOCC3)c2c1` (single isomer, unassigned) [Example 457], the IC50 was less than 5 nM.

In the case of `[2H]C([2H])([2H])c1nnn(C)c1-c1cnc2c3ccc(C(C)(C)O)c(F)c3n(C(c3ncccc3F)C3CCOCC3)c2c1` (single isomer, unassigned) [Example 458], the IC50 was less than 5 nM.

Consider `Cc1nnc(C)n1-c1cnc2c3ccc(C(C)(C)O)cc3n(C(c3ccccc3)C3CCOCC3)c2c1` (stereo in doubt) [Example 357, 2-[3-(Dimethyl-4H-1,2,4-triazol-4-yl)-5-[(R)-oxan-4-yl(phenyl)methyl]-5H-pyrido[3,2-b]indol-7-yl]propan-2-ol], for which the IC50 is less than 5 nM.

For `CCC(CC)n1c2cc(C(C)(C)O)ccc2c2ncc(-c3c(C)noc3C)cc21` [Example 4], the IC50 is less than 25 nM.

In the case of `COCC(c1ccccc1)n1c2cc(C(C)(C)O)ccc2c2ncc(-c3c(C)noc3C)cc21` (stereo not shown) [Example 5], the IC50 is less than 5 nM.

For `Cc1noc(C)c1-c1cnc2c3ccc(C(C)(C)O)cc3n([C@@H](CCC(F)(F)F)c3ccccc3)c2c1` [Example 9], the IC50 is less than 5 nM.

With `Cc1noc(C)c1-c1cnc2c3ccc(C(C)(C)O)cc3n([C@H](CCC(F)(F)F)c3ccccc3)c2c1` [Example 10], the IC50 is less than 25 nM.

With `Cc1noc(C)c1-c1cnc2c3ccc(C(C)(C)O)cc3n([C@H](c3ccccc3)C3CC3)c2c1` [Example 11], the IC50 was less than 25 nM.

As to `Cc1noc(C)c1-c1cnc2c3ccc(C(C)(C)O)cc3n([C@@H](c3ccccc3)C3CC3)c2c1` [Example 12], the IC50 was less than 25 nM.

`Cc1noc(C)c1-c1cnc2c3ccc(C(C)(C)O)cc3n([C@H](c3ccccc3)C3CCC3)c2c1` [Example 13]: the IC50 is less than 5 nM.

For `Cc1noc(C)c1-c1cnc2c3ccc(C(C)(C)O)cc3n([C@@H](c3ccccc3)C3CCC3)c2c1` [Example 14], the IC50 is less than 25 nM.

For `Cc1noc(C)c1-c1cnc2c3ccc(C(C)(C)O)cc3n([C@H](c3ccc(F)cc3)C3CCC3)c2c1` [Example 15], the IC50 is less than 5 nM.

In the case of `Cc1noc(C)c1-c1cnc2c3ccc(C(C)(C)O)cc3n([C@@H](c3ccc(F)cc3)C3CCC3)c2c1` [Example 16], the IC50 was less than 25 nM.

Turning to `Cc1noc(C)c1-c1cnc2c3ccc(C(C)(C)O)cc3n([C@H](c3ccc(F)cc3)C3CCOC(C)(C)C3)c2c1` (stereo partly shown) [Example 17], the IC50 is less than 25 nM.

Consider `Cc1noc(C)c1-c1cnc2c3ccc(C(C)(C)O)cc3n([C@@H](c3ccc(F)cc3)C3CCOC(C)(C)C3)c2c1` (stereo partly shown) [Example 18], for which the IC50 was less than 1500 nM.

`Cc1noc(C)c1-c1cnc2c3ccc(C(C)(C)O)cc3n([C@H](CCC(F)(F)F)c3cscn3)c2c1` [Example 19]: the IC50 is less than 5 nM.

On to `Cc1noc(C)c1-c1cnc2c3ccc(C(C)(C)O)cc3n([C@@H](CCC(F)(F)F)c3cscn3)c2c1` [Example 20], for which the IC50 was less than 25 nM.

Regarding `Cc1noc(C)c1-c1cnc2c3ccc(C(C)(C)O)cc3n([C@H](c3ccccn3)C3CCOCC3)c2c1` [Example 21], the IC50 was less than 5 nM.

`Cc1noc(C)c1-c1cnc2c3ccc(C(C)(C)O)cc3n([C@@H](c3ccccn3)C3CCOCC3)c2c1` [Example 22]: the IC50 is less than 5 nM.

Consider `Cc1noc(C)c1-c1cnc2c3ccc(C(C)(C)O)cc3n([C@@H](CCC(F)(F)F)c3ccccn3)c2c1` [Example 23], for which the IC50 is less than 5 nM.

Regarding `Cc1noc(C)c1-c1cnc2c3ccc(C(C)(C)O)cc3n([C@H](CCC(F)(F)F)c3ccccn3)c2c1` [Example 24], the IC50 was less than 1500 nM.

In the case of `Cc1noc(C)c1-c1cnc2c3ccc(C(C)(C)O)cc3n(C(C3CCC3)C3CCC3)c2c1` [Example 31, 2-[5-(Dicyclobutylmethyl)-3-(dimethyl-1,2-oxazol-4-yl)-5H-pyrido[3,2-b]indol-7-yl]propan-2-ol], the concentration for half-maximal inhibition (IC50) is less than 5 nM.

Regarding `Cc1noc(C)c1-c1cnc2c3ccc(C(=O)O)cc3n(C(c3ccccc3)C3CCOCC3)c2c1` (stereo not shown) [Example 44, 3-(Dimethyl-1,2-oxazol-4-yl)-5-[oxan-4-yl(phenyl)methyl]-5H-pyrido[3,2-b]indole-7-carboxylic acid], the IC50 is less than 5 nM.

`Cc1noc(C)c1-c1cnc2c3ccc(C(=O)O)cc3n(C(c3ccccc3)c3ccccc3)c2c1` [Example 45, 3-(Dimethyl-1,2-oxazol-4-yl)-5-(diphenylmethyl)-5H-pyrido[3,2-b]indole-7-carboxylic acid]: the IC50 is less than 5 nM.

In the case of `Cc1noc(C)c1-c1cnc2c3ccc(C(C)(C)O)cc3n(Cc3ccccc3)c2c1` [Example 46, 2-[5-Benzyl-3-(dimethyl-1,2-oxazol-4-yl)-5H-pyrido[3,2-b]indol-7-yl]propan-2-ol], the IC50 is less than 1500 nM.

On to `Cc1noc(C)c1-c1cnc2c3ccc(C(C)(C)O)cc3n(CC3CCOCC3)c2c1` [Example 47], for which the IC50 was less than 25 nM.

For the molecule `Cc1noc(C)c1-c1cnc2c3ccc(C(C)(C)O)cc3n(Cc3ccc(F)cc3)c2c1` [Example 48], the IC50 is less than 25 nM.

As to `Cc1noc(C)c1-c1cnc2c3ccc(C(C)(C)O)cc3n(CC3CCC(F)(F)CC3)c2c1` [Example 49], the IC50 is less than 5 nM.

For the molecule `Cc1noc(C)c1-c1cnc2c3ccc(C(F)F)cc3n(Cc3ccccc3)c2c1` [Example 50, 4-[5-Benzyl-7-(difluoromethyl)-5H-pyrido[3,2-b]indol-3-yl]-3,5-dimethyl-1,2-oxazole], the IC50 is less than 1500 nM.

For `Cc1noc(C)c1-c1cnc2c3ccccc3n(Cc3ccccc3)c2c1` [Example 51, 4-(5-Benzyl-5H-pyrido[3,2-b]indol-3-yl)-3,5-dimethyl-1,2-oxazole], the IC50 is less than 1500 nM.

Take `Cc1noc(C)c1-c1cnc2c3ccc(S(C)(=O)=O)cc3n(Cc3ccccc3)c2c1` [Example 52, 4-(5-Benzyl-7-(methylsulfonyl)-5H-pyrido[3,2-b]indol-3-yl)-3,5-dimethyl-1,2-oxazole]: the IC50 was less than 25 nM.

Regarding `Cc1noc(C)c1-c1cnc2c3c(C(C)(C)O)cccc3n(Cc3ccccc3)c2c1` [Example 53, 2-[5-Benzyl-3-(dimethyl-1,2-oxazol-4-yl)-5H-pyrido[3,2-b]indol-9-yl]propan-2-ol], the IC50 was less than 1500 nM.

With `Cc1nnn(C)c1-c1cnc2c3ccc(C(C)(C)O)cc3n([C@@H](CCC(F)(F)F)c3ccccc3)c2c1` [Example 57], the IC50 is less than 5 nM.

`Cc1nnn(C)c1-c1cnc2c3ccc(C(C)(C)O)cc3n([C@H](CCC(F)(F)F)c3ccccc3)c2c1` [Example 58]: the IC50 is less than 5 nM.

Take `Cc1nnn(C)c1-c1cnc2c3ccc(C(C)(C)O)cc3n([C@H](c3ccccn3)C3CCOCC3)c2c1` [Example 62]: the half-maximal inhibitory concentration (IC50) is less than 25 nM.

As for `Cc1nnn(C)c1-c1cnc2c3ccc(C(C)(C)O)cc3n([C@@H](c3ccccn3)C3CCOCC3)c2c1` [Example 63], the IC50 was less than 25 nM.

As for `Cc1nnn(C)c1-c1cnc2c3ccc(C(C)(C)O)cc3n([C@H](c3ccccc3F)C3CCOCC3)c2c1` [Example 64], the IC50 is less than 5 nM.

Take `Cc1nnn(C)c1-c1cnc2c3ccc(C(C)(C)O)cc3n([C@@H](c3ccccc3F)C3CCOCC3)c2c1` [Example 65]: the IC50 is less than 5 nM.

The values are drawn from patent US10112941B2, “Tricyclic compounds as anticancer agents” (BRISTOL-MYERS SQUIBB COMPANY, priority 2013, dated 2018).
